Reference: patent publication US20030008807A1, “Novel signaling pathway for the production of inflammatory pain and neuropathy” (The Regents of the University of California, priority 2001, published 2003)
“Also recorded” adds a separate entry of the source. Blank lines part the entries; values can stand above or below the molecule they belong to.

Legend:
ERK1/2 = assay: Epinephrine-stimulated ERK1/2 phosphorylation in cultured rat DRG neurons (Western analysis); assay type: cell-based; conditions: for effect on epinephrine-induced ERK phosphorylation: 1 μM epinephrine 5 min, ICI 118,551 100 nM, U0126 10 μM, H89 1 μM, calphostin C 1 μM
[1] = test system: mechanical nociceptive threshold; assay: Epinephrine-induced mechanical hyperalgesia, Randall-Selitto paw-withdrawal test (Example 1); conditions: intradermal, inhibitor 1 μg plus epinephrine 100 ng, male rats
[2] = test system: mechanical nociceptive threshold; assay: Epinephrine-induced hyperalgesia in gonad-intact and gonadectomized male and female rats (Example 2); conditions: inhibitor 1 μg, epinephrine 100 ng intradermal
Procedure: The nociceptive flexion reflex was quantified using the Randall-Selitto paw pressure device (Analgesymeter, Stoetling, Chicago, Ill., USA), which applies a linearly increasing mechanical force to the dorsum of the rat's hind paw. The mechanical nociceptive threshold was defined as the force in grams at which the rat withdrew its paw. […] Baseline paw-withdrawal threshold was defined as the mean of six readings before test agents were injected. […] Each group of rats was treated with only one agonist and/or antagonist injected peripherally by the intradermal route. […] All behavioural testing was done between 10.00 and 16.00 h. […] The protein kinase inhibitor was separated from the distilled water by drawing up a small air bubble (<1 μL) into the syringe after drawing up the protein kinase inhibitor but before drawing up the distilled water.
A stock solution of PGE2 (4 mg/mL) was made by dissolving it in 10% ethanol in normal saline; further dilution to 100 ng was made by addition of saline. Final concentration of ethanol was <10%. […] Stock solutions (1 μg/μL) of inhibitors were stored at −20° C. […] Inhibitors were injected at a concentration of 1 μg/2.5 μL.

[3] = test system: mechanical nociceptive threshold; assay: Prostaglandin E2-induced hyperalgesia in male and female rats (Example 2); assay type: in vivo, rat
Text: The nociceptive flexion reflex was quantified using the Randall-Selitto paw pressure device (Analgesymeter, Stoetling, Chicago, Ill., USA), which applies a linearly increasing mechanical force to the dorsum of the rat's hind paw. The mechanical nociceptive threshold was defined as the force in grams at which the rat withdrew its paw. The protocols for this procedure have been previously described (Taiwo et al., (1989) The contribution of training to sensitivity in the nociceptive paw-withdrawal test. Brain Res., 487:148-151). Rats were familiarized in the testing procedure, at 5-min intervals for a period of 1 h per day for 3 days in the week preceding the experiment, to decrease variance in nociceptive thresholds (Taiwo et al., (1989), supra). Baseline paw-withdrawal threshold was defined as the mean of six readings before test agents were injected. Each paw was treated as an independent measure (Taiwo et al., (1989), supra) and each experiment was performed on a separate group of rats. Each group of rats was treated with only one agonist and/or antagonist injected peripherally by the intradermal route. It has been shown in previous studies that these agents, which are injected using the protocol described, exert a peripheral rather than central action (Khasar et al., (1995), supra; and, Khasar et al., (1999b), supra). The dose-response relationship for the effect of epinephrine was determined over a dose range of 1 ng-1 μg. All behavioural testing was done between 10.00 and 16.00 h. The blocking agents, with and without epinephrine (Khasar et al., (1999b), supra) or prostaglandin E2 (PGE2) (Aley et al., (1998), supra; Aley & Levine, (1999), supra; and, Aley et al., (2000) Chronic hypersensitivity for inflammatory nociceptor sensitization mediated by the epsilon isozyme of protein kinase C. J. Neurosci., 20:4680-4685), were injected as described previously (Khasar et al., (1995), supra; and, Khasar et al., (1999b), supra). […]

[4] = test system: Taxol-induced hyperalgesia; assay: Taxol-induced painful peripheral neuropathy, Randall-Selitto paw-withdrawal test; assay type: in vivo, rat; conditions: male and female rats; normal approximately 110 grams
Text: (§1) The role of Ras-MEK-ERK 1/2 cascade in painful peripheral neuropathy has been evaluated in three rodent models of common clinical conditions in which patients experience painful peripheral neuropathy. The three models are as follows: 1) Taxol® (a major cancer chemotherapy agent)-induced painful peripheral neuropathy (Dina, O. A., et al., (2001) Role of protein kinase C-epsilon and protein kinase A in a model of paclitaxel-induced painful peripheral neuropathy in the rat. Neuroscience 108:507-515); 2) vincristine (another cancer chemotherapy agent)-induced painful peripheral neuropathy (Aley, K. O., et al., (1996) Vincristine hyperalgesia in the rat: a possible modelfor painful vincristine neuropathy in humans. Neuroscience 73:259-265; Tanner, K. D., et al., (1998) Nociceptor hyper-responsiveness during vincristine-induced painful peripheral neuropathy in the rat. J. Neuroscience 18:6480-6491; Tanner, K. D., et al., (1998) Microtubule disorientation and axonal swelling in unmyelinated sensory axons during vincristine-induced painful neuropathy in rat. J. Comp. Neurol., 395:481-492; and, Tanner, K. D., et al., (2002) Altered temporal patterning of afferent activity in a rat model of vincristine-induced peripheral neuropathy (Submitted -Neuroscience).); and, 3) alcohol-induced painful peripheral neuropathy (Dina, O. A., et al., (2000) Key role for the epsilon isoform of protein kinase C in painful alcoholic neuropathy in the rat. J. Neurosci. 20:8614-8619). In all three models, inhibition of MEK by a MEK inhibitor, PD98509, produced either a moderate (Taxol and vincristine) or profound (alcohol) reversal of the painful peripheral neuropathy. In the third model, alcohol-induced painful peripheral neuropathy, a second inhibitor of the Ras-MEK-ERK 1/2 cascade, which was MEK inhibitor U0126, was also employed.
The pain threshold in normal male and female rats was approximately 110 grams, using the Randall-Selitto paw-withdrawal test (plotted as absolute change in nociceptive threshold). Following administration of Taxol, the threshold fell to approximately 70 grams.

[5] = test system: alcohol-induced hyperalgesia; assay: Alcohol-induced painful peripheral neuropathy, Randall-Selitto paw-withdrawal test; assay type: in vivo, rat
Text: as §1
The pain threshold in normal rats was approximately 110 grams, using the Randall-Selitto paw-withdrawal threshold test (plotted as percentage change in nociceptive threshold). Following chronic consumption of a diet in which alcohol replaced calories, but not other nutrients, in the normal diet, the threshold fell to approximately 70 grams. […] See FIG. 13A, which illustrates results from female rats and FIG. 13B, which illustrates results from male rats.

[6] = test system: mechanical nociceptive threshold; conditions: rat, in vivo; cited from earlier work
[7] = test system: vincristine-induced hyperalgesia; assay: Vincristine-induced painful peripheral neuropathy, Randall-Selitto paw-withdrawal test; assay type: in vivo, rat; conditions: male and female rats; normal approximately 110 grams
Text: as §1
The pain threshold in normal male and female rats was approximately 110 grams, using the Randall-Selitto paw-withdrawal test (plotted as absolute change in nociceptive threshold). Following administration of vincristine, the threshold fell to approximately 65 grams.

Molecule: O=S(=O)(NCCNCC=Cc1ccc(Br)cc1)c1cccc2cnccc12 [H89, N-[2-(p-bromocinnamylamino)ethyl]-5-isoquinolinesulfonamide]
- effect on epinephrine-induced ERK phosphorylation (ERK1/2): did not reduce; also recorded: did not block
- effect on epinephrine-induced mechanical hyperalgesia [1]: did not block

Molecule: Cc1ccc(OCC(O)C(C)NC(C)C)c2c1CCC2 (stereo not drawn) [ICI 118,551]
- effect on epinephrine-induced ERK phosphorylation (ERK1/2): inhibited
- effect on basal ERK phosphorylation (ERK1/2; unstimulated cultures): did not inhibit

Molecule: CNC(=N)NCCC[C@H](N)C(=O)O [L-NMA, NG-methyl-L-arginine]
- effect on epinephrine-induced hyperalgesia ([2]; gonadectomized female rats): significantly antagonized
- effect on epinephrine-induced hyperalgesia ([2]; gonadectomized male rats): significantly antagonized
- effect on epinephrine-induced hyperalgesia ([2]; intact female rats): did not have a significant effect
- effect on epinephrine-induced hyperalgesia ([2]; intact male rats): significantly antagonized
- effect on prostaglandin E2-induced hyperalgesia ([3]; both sexes, gonad-intact, inhibitor 1 μg, PGE2 100 ng intradermal): significantly blocked; also recorded: inhibited to a similar degree

- pain threshold following administration of Taxol [4]: approximately 70 grams
Molecule: CC(=O)O[C@H]1C(=O)[C@@]2(C)[C@H]([C@H](OC(=O)c3ccccc3)[C@]3(O)C[C@H](OC(=O)[C@H](O)[C@@H](NC(=O)c4ccccc4)c4ccccc4)C(C)=C1C3(C)C)[C@]1(OC(C)=O)CO[C@@H]1C[C@@H]2O [Taxol]

- threshold following chronic consumption of alcohol diet ([5]; female rats (FIG. 13A)): approximately 70 grams
- threshold following chronic consumption of alcohol diet ([5]; male rats (FIG. 13B)): approximately 70 grams
- pain threshold following chronic consumption of alcohol diet ([5]; normal approximately 110 grams): approximately 70 grams
Molecule: CCO [alcohol]

Molecule: C=C(C)[C@@H]1CC=C(C(=O)O)CC1 [perillic acid]
- effect on epinephrine-induced mechanical hyperalgesia [1]: reduced

Molecule: Cc1ccc(N(CC2=NCCN2)c2cccc(O)c2)cc1 [phentolamine]
- effect on epinephrine hyperalgesia in the rat (previously demonstrated) [6]: not

Molecule: CC(C)NCC(O)COc1cccc2ccccc12 (stereo not drawn) [propranolol]
- effect on epinephrine-induced hyperalgesia ([2]; intact female rats): inhibited
- effect on epinephrine-induced hyperalgesia ([2]; intact male rats): inhibited
- effect on epinephrine hyperalgesia in the rat (previously demonstrated) [6]: significantly attenuated

Molecule: CCCCC[C@H](O)/C=C/[C@H]1[C@H](O)CC(=O)[C@@H]1C/C=C\CCCC(=O)O [prostaglandin E2]
- magnitude of hyperalgesia in intact female rats vs males ([3]; PGE2 100 ng): greater

- pain threshold following administration of vincristine [7]: approximately 65 grams
Molecule: CC[C@]1(O)C[C@H]2CN(CCc3c([nH]c4ccccc34)[C@@](C(=O)OC)(c3cc4c(cc3OC)N(C=O)[C@H]3[C@@](O)(C(=O)OC)[C@H](OC(C)=O)[C@]5(CC)C=CCN6CC[C@]43[C@@H]65)C2)C1 [vincristine]

Molecule: calphostin C
- effect on epinephrine-induced ERK phosphorylation (ERK1/2): did not reduce

Molecule: pertussis toxin
- effect on epinephrine-induced phosphorylation of ERK1/2 (ERK1/2; pertussis toxin or 1 μM FTase I for 16 hr, then 1 μM epinephrine): prevented; also recorded: inhibit
- effect on epinephrine-induced mechanical hyperalgesia [1]: reduced

B1: NGF: mouse 2.5 S nerve growth factor, positive control for ERK1/2 phosphorylation (protein, UniProt P01139 122-241, looked up)
Beta-nerve growth factor: SSTHPVFHMGEFSVCDSVSVWVGDKTTATDIKGKEVTVLAEVNINNSVFRQYFFETKCRASNPVESGCRGIDSKHWNSYCTTTHTFVKALTTDEKQAAWRFIRIDTACVCVLSRKATRRG
modifications: Beta-nerve growth factor
notes: mouse 2.5 S nerve growth factor, positive control for ERK1/2 phosphorylation
- ERK1/2 phosphorylation (representative Western blot) (ERK1/2; epinephrine for indicated times, NGF 50 ng/ml 5 min): stimulation
